In data set [1] the test system is SYO-1 Synovial sarcoma (SS) xenografts. The data set can be described thus: SYO-1 synovial sarcoma xenograft. It is filed as in vivo, athymic nude mice. Conditions: 300 nmoles for 14 days; FIG. 14E. As to the method:
SYO-1 Synovial sarcoma (SS) xenografts were also treated with 300 nmoles SW V-49. […] FIG. 14E depicts athymic nude mice xenograft of SS cell line SYO-1 treated with SW V-49 (300 nmoles) for 14 days and then followed, p<0.0001. SYO xenografts required a smaller dose of SW V-49 to achieve results similar to those achieved against PDAC.

The test system of a further data set is caspase 8. Briefly: CASPASE-GLO caspase 8 assay in AsPC-1 cells. It is filed as cell-based, human. The note with it: 4 μM, 24 hours, FIG. 12C. The method, then: (§1) In these experiments, caspase-3/7.8 and 9 activities were measured In AsPC-1 cells using the corresponding CASPASE-GLO® Assay according to the manufacturer's instructions (Promega, Madison. Wis.). This assay is based on a caspase-specific substrate, which is cleaved to release aminoluciferin, a substrate of luciferase that results in caspase-specific luminescence signals. Cells were seeded at a density of 2×10^4 in white 96-well, clear bottom plates for 24 hours before treatment with 4 μM of compounds. The contents were then mixed using a plate shaker for 30 seconds, thereafter incubated at room temperature for 90 minutes. Luminescence signal was measured using a multi-mode microplate reader (BioTek). Assay was performed in triplicates, and the caspase activity of DMSO was considered as a base line.
(§2) The present inventors have shown that SV119 induces caspase-3 dependent apoptosis (Kashiwagi, H., el al. Mol Cancer 2007; 6:48). In these experiments, AsPC-1 cells were treated with 4 μM of SW V-49s. SV119, Erastin, and equimolar mixture of SV119 and Erastin for 24 hours. Using CASPASE-GLO® Assays, Caspase-3 level was measured to assess the activity of SW 119 domain of the SW V-49s compound and Caspase-8 and 9 levels were measured to identify which apoptotic pathway was involved.

The next data set has as its system caspase 9. The data set can be described thus: CASPASE-GLO caspase 9 assay in AsPC-1 cells. It is filed as cell-based, human. Conditions: 4 μM, 24 hours, DMSO baseline, FIG. 12B. The method, then:
as §1, §2

Data set [2] has as its system PDAC patient-derived xenograft. The data set can be described thus: PDAC patient-derived mouse xenograft model. Type of data set: in vivo. Conditions: daily i.p. 375 nmoles for 2 weeks. The method, then: SW V-49s was also tested on a PDAC patient-derived mouse xenograft model, which is more clinically relevant. Surgical PDAC specimens (2×2 mm pieces) were obtained and implanted subcutaneously into the flanks of anesthetized NOD SCID mice. Then, tumors were harvested and implanted in the right flank of Athymic female nude mice (6 weeks old. National Cancer Institute Laboratories). These mice were treated with daily i.p. injections of […] and vehicle for 14 days. Mice were randomized into 2 groups (n=15). Drug treatment was started when the mean tumors diameter was ^˜6 mm. Mice received daily intra peritoneal injections with 375 nmoles in 100 μL/mouse of SW V-49s and vehicle for 2 weeks. Tumors were measured every other day. Mice were euthanized when tumors reached a diameter of 2 cm or ulcerated.
Background: In xenograft studies the graft and the host belong to different species.

With `CCOc1ccccc1-n1c(CN2CCN(C(=O)COc3ccc(CNCCCCCCN4C5CCCC4CC(OC(=O)Nc4cc(C)ccc4OC)C5)cc3)CC2)nc2ccccc2c1=O.O=C(O)C(=O)O` (stereo not drawn) [SW V-49s], the tumor growth entry in data set [1] is recorded as “Growth inhibition”. Moreover, in the data set on caspase 8, the “increase in caspase 8” value is “no significant increase”. Moreover, in the data set with caspase 9, the “caspase-9 fold above baseline” value came out at 3.2 fold. Besides, in data set [2], the tolerability entry was “tolerated the treatment well without obvious off-target effects”. For the same compound, the “growth rate of established tumors” value in data set [2] (FIG. 14C) is reported as “markedly slowed the growth rate of the established tumors”. Moreover, the median survival in data set [2] (vehicle 33 days, FIG. 14D) was found to be 58 days.
